Among the data in article PMC8706783 (Pharmaceutics, 2021) are IC50 values, retold here.

In one assay the target is T1, CYP1B1 (Homo sapiens, UniProt Q16678).
T1 construct: purchased Corning Inc
The assay can be described thus: Enzyme inhibition assay, CYP1B1. Format: in vitro ADME. The settings on record: Recombinant CYP1B1; 7-ethoxyresorufin O-deethylation.

In another assay the target is T2, UGT1A3 (Homo sapiens, UniProt P35503).
T2 sequence (P35503 29-534): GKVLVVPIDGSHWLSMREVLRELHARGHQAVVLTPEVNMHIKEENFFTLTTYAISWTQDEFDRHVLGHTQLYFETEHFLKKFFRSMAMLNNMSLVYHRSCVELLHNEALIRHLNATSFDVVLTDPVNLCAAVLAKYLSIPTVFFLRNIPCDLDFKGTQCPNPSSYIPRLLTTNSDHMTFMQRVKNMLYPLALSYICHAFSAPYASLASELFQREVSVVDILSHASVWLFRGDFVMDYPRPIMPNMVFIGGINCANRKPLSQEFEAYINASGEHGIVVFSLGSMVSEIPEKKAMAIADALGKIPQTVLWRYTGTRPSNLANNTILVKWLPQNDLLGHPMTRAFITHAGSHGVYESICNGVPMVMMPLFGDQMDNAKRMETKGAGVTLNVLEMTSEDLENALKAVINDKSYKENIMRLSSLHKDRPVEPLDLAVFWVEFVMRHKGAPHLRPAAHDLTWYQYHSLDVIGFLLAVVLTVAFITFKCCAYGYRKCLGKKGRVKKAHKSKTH
Put plainly: Enzyme inhibition assay, UGT1A3. The conditions noted are these: HLM; UGT1A3 chenodeoxycholic acid 24 O-glucuronidation. Format: in vitro ADME. Details: from tissue.

The next assay concerns the target T3, UGT1A9 (Homo sapiens, UniProt O60656).
T3 sequence (O60656 26-530): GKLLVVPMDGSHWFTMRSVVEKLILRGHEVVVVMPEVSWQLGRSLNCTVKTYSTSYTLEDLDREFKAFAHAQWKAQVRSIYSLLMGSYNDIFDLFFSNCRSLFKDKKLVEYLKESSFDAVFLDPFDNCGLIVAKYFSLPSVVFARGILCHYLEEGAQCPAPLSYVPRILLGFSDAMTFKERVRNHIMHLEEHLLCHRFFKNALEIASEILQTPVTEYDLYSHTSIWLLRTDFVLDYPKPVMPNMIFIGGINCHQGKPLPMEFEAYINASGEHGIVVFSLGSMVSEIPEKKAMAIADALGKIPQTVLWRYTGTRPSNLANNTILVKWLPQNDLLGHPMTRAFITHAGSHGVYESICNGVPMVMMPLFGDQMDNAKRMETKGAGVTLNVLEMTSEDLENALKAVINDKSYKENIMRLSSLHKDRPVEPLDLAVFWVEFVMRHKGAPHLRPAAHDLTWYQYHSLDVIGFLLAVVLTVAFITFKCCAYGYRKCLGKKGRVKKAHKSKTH
Put plainly: Enzyme inhibition assay, UGT1A9. Format: in vitro ADME. Details: from tissue. The settings on record: HLM; UGT1A9 mycophenolic acid glucuronidation.

Another assay concerns the target T4, CYP1A1 (Homo sapiens, UniProt P04798).
T4 sequence (P04798 1-512): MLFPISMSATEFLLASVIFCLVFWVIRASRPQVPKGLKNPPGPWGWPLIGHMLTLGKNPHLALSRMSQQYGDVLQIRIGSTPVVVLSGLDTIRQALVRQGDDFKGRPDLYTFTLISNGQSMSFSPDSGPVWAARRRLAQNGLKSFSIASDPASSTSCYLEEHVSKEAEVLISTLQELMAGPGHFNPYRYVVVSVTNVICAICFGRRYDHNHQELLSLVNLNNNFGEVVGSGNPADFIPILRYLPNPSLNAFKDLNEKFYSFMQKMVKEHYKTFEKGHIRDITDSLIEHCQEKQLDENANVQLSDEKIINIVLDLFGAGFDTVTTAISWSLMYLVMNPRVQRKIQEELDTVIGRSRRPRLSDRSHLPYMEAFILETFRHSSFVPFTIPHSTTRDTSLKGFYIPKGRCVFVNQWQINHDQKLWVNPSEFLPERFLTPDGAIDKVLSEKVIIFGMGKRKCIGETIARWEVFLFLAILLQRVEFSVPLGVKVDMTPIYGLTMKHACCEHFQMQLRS
The assay can be described thus: Enzyme inhibition assay, CYP1A1. It counts as in vitro ADME. Also on record: purchased Xenotech LLC. The conditions noted are these: Recombinant CYP1A1; phenacetin-O-deethylation.

For the next assay, the target named is T5, CYP1A2 (Homo sapiens, UniProt P05177).
T5 sequence (P05177 1-516): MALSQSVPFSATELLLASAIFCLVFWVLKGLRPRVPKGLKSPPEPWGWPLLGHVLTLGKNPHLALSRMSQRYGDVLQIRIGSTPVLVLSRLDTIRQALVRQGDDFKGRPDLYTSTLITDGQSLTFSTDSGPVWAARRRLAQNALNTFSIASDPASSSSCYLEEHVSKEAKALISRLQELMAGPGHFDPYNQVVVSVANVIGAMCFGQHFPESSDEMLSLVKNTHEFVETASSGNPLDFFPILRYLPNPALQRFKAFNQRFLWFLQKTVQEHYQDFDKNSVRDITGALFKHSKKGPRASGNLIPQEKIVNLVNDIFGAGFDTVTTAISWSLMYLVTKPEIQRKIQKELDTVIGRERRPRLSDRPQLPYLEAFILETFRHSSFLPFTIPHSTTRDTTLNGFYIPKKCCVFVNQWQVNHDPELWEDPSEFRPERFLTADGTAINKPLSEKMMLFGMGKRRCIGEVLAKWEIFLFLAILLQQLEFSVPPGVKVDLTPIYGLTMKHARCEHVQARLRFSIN
Put plainly: Enzyme inhibition assay, CYP1A2.

The next assay addresses T6, UGT1A7 (Homo sapiens, UniProt Q9HAW7).
T6 sequence (Q9HAW7 26-530): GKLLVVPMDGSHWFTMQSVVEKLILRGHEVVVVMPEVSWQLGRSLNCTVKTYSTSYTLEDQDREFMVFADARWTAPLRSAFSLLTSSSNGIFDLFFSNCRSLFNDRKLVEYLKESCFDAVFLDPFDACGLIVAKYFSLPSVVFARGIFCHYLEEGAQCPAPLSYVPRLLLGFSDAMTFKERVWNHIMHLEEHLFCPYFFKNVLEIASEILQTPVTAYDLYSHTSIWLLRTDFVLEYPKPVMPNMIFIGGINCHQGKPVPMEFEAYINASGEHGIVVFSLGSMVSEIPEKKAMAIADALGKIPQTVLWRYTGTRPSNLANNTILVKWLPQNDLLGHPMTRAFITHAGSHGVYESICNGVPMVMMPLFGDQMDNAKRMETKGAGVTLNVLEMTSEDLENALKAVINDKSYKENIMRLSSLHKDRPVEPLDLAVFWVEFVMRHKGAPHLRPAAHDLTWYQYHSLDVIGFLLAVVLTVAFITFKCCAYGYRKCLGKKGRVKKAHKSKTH
Put plainly: Enzyme inhibition assay, UGT1A7.

T1 sequence (Q16678 whole entry): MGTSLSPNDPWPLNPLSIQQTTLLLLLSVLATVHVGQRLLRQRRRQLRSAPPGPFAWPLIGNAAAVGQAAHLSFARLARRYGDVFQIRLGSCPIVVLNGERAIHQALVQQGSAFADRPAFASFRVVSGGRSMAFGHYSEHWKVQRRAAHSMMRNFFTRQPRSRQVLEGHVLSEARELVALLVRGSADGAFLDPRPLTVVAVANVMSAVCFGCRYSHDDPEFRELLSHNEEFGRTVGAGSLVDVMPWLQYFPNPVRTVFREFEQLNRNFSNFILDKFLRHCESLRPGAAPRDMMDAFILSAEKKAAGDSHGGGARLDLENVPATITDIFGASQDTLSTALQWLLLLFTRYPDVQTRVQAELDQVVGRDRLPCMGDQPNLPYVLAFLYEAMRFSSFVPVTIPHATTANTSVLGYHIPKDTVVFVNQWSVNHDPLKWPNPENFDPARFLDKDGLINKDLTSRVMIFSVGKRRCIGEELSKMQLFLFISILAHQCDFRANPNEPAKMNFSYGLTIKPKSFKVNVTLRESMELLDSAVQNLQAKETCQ

The IC50 is the concentration that gives 50% inhibition. For `Clc1ccc(COC(Cn2ccnc2)c2ccc(Cl)cc2Cl)c(Cl)c1` (stereo not drawn) [MIC, miconazole], the IC50 is 0.47 µM on CYP1B1; 13.6 µM at UGT1A3; greater than 30 µM at UGT1A9; 0.43 µM at CYP1A1; 5.11 µM on CYP1A2; greater than 30 µM at UGT1A7.

Turning to `Cc1cc(C)c(Nc2ccnc(Nc3ccc(C#N)cc3)n2)c(C)c1` [DPV, Dapivirine], the IC50 at CYP1B1 is 1.55 µM; on UGT1A3, 17 µM; on UGT1A9, greater than 30 µM; at CYP1A1 it was 0.5 µM; at CYP1A2 it was 10.5 µM; on UGT1A7 it was 24.2 µM.
